Results: US9682978B2, “2,6,7 substituted purines as HDM2 inhibitors” (Merck Sharp & Dohme Corp., priority 2013, dated 2017)

Target: T1, HDM2 (Homo sapiens, UniProt Q00987)
T1 construct: Thioredoxin (N); made in house; host or cells: E. coli BL21(DE3)Rosetta (pET32a)
Assay: HDM2 FRET assay (inhibition of p53 peptide binding to HDM2)
Conditions: for IC50: truncated HDM2 residues 17 to 125, 0.5 nM HDM2, 3 nM FITC labeled 8-mer peptide, two hour incubation; for inhibition at 1 µM: Table 1, printed in the FRET IC50 column, at 1000 nM compound
Description: Methods: An HDM2 FRET assay was developed to assess the compounds' inhibitory activity towards binding of p53 protein. A truncated version of HDM2 with residues 17 to 125 (containing p53 binding surface, Science (1994) 265, 346-355), with N-terminal His and Thioredoxin tag was generated in pET32a expression vector and expressed in E. coli strain BL21(DE3)Rosetta. Protein was purified using Ni-affinity chromatography, followed by size exclusion chromatography using Superdex 75 26/60 column. To assess inhibition of p53 binding to HDM2, a FITC labeled 8-mer peptide (sequence: Ac-Phe-Arg-Dpr-Ac6c-(6-Br)Trp-Glu-Glu-Leu-NH2; Anal Biochem. 2004 Aug. 1; 331(1):138-46) with strong affinity towards p53 binding pocket of HDM2 was used. The HDM2 assay buffer contained 1× Phosphate Buffered Saline (Invitrogen, Cat#14190), 0.01% BSA (Jackson ImmunoResearch, Cat#001-000-162), 0.01% Tween-20. In the 1× assay buffer recombinant HDM2 protein, peptide and Lumi4-Tb Cryptate-conjugate mouse anti-6×HIS antibody (cisbio, Cat#Tb61HISTLB) were added and transferred to ProxiPlate PLUS (PerkinElmer, Cat#6008269), containing compounds so that final DMSO concentration is 0.1%. Final concentrations of reagents in the assay wells are 0.5 nM HDM2, 0.25 nM anti HIS (Tb label) antibody and 3 nM peptide. After two hour incubation at room temperature in a humidified chamber plates were read on EnVision plate reader with the following settings: excitation: UV, […], two emission filters: 520 nm and 495 nm respectively. Ratio of em520/em495 was used to calculate % inhibition and to obtain IC50 with 4-parameter logistic equation.
IC50 DETERMINATIONS: Dose-response curves were plotted from the inhibition data, from 10 point serial dilutions of inhibitory compounds. Concentration of compound was plotted against em520/Cem495 ratio signal. To generate IC50 values, the dose-response curves were fitted to a standard sigmoidal curve and IC50 values were derived by nonlinear regression analysis. IC50 values in the above table are rounded to the nearest integer.

T1 sequence (Q00987 17-125): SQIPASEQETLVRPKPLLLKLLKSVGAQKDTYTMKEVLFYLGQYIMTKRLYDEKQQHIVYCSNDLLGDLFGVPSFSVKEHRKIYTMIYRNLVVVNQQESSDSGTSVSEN

Compound	IC50 (Table 3) [nM]	IC50 (Table 2) [nM]	further results
CC1CCC(Cn2cnc3nc(-c4noc(=O)[nH]4)nc(N[C@H](C)C4CCC4)c32)C1 (mixture of isomers) [Example 3.9, 3-(6-{[(1R)-1-cyclobutylethyl]amino}-7-[(3-methylcyclopentyl)methyl]-7H-purin-2-yl)-1,2,4-oxadiazol-5(4H)-one]	1640		
C[C@H]1CC[C@H](Cn2cnc3nc(-c4noc(=O)[nH]4)nc(-c4cc(Cl)cc(C#N)c4)c32)CC1 [Example 2.4, 3-chloro-5-{7-[(trans-4-methylcyclohexyl)methyl]-2-(5-oxo-4,5-dihydro-1,2,4-oxadiazol-3-yl)-7H-purin-6-yl}benzonitrile]		413	
C[C@@H](Nc1nc(-c2noc(=O)[nH]2)nc2ncn(CC3CCC4(CC3)CC4)c12)C1CCC1 [Example 3.3, 3-[6-{[(1R)-1-cyclobutylethyl]amino}-7-(spiro[2.5]oct-6-ylmethyl)-7H-purin-2-yl]-1,2,4-oxadiazol-5(4H)-one]	1430		
C[C@H]1CC[C@H](Cn2cnc3nc(-c4noc(=O)[nH]4)nc(-c4cc(Cl)cc(N5CCCC5)c4)c32)CC1 [Example 2.18, 3-{6-(3-chloro-5-pyrrolidin-1-ylphenyl)-7-[(trans-4-methylcyclohexyl)methyl]-7H-purin-2-yl}-1,2,4-oxadiazol-5(4H)-one]		331	
C[C@H]1CC[C@H](Cn2cnc3nc(-c4noc(=O)[nH]4)nc(-c4cc(Cl)cnc4O)c32)CC1 [Example 2.16, 3-{6-(5-chloro-2-hydroxypyridin-3-yl)-7-[(trans-4-methylcyclohexyl)methyl]-7H-purin-2-yl}-1,2,4-oxadiazol-5(4H)-one]		87.6	
C[C@@H]1CC[C@@H](Cn2cnc3nc(-c4noc(=O)[nH]4)nc(N[C@H](C)C4CCC4)c32)CC1(F)F (stereo in doubt) [Example 3.5, 3-(6-{[(1R)-1-cyclobutylethyl]amino}-7-{[(trans)-3,3-difluoro-4-methylcyclohexyl]methyl}-7H-purin-2-yl)-1,2,4-oxadiazol-5(4H)-one]	198		
C[C@H]1CC[C@H](Cn2cnc3nc(C(=O)O)nc(-c4cncc(Cl)c4)c32)CC1 [Example 2.20, 6-(5-chloropyridin-3-yl)-7-[(trans-4-methylcyclohexyl)methyl]-7H-purine-2-carboxylic acid]		213	
COCCOc1cc(Cl)cc(-c2nc(-c3n[nH]c(=O)o3)nc3ncn(C[C@H]4CC[C@H](C)CC4)c23)c1 [Example 2.23, 5-{6-[3-chloro-5-(2-methoxyethoxy)phenyl]-7-[(trans-4-methylcyclohexyl)methyl]-7H-purin-2-yl}-1,3,4-oxadiazol-2(3H)-one]		132	
CS(=O)(=O)c1cc(Cl)cc(-c2nc(-c3noc(=O)[nH]3)nc3ncn(C[C@H]4CC[C@H](C)CC4)c23)c1 [Example 2.17, 3-{6-[3-chloro-5-(methylsulfonyl)phenyl]-7-[(trans-4-methylcyclohexyl)methyl]-7H-purin-2-yl}-1,2,4-oxadiazol-5(4H)-one]		250	
C[C@@H](Nc1nc(-c2nc(=O)n(C)[nH]2)nc2ncn(C[C@H]3CC[C@H](C)CC3)c12)C1CCC1 [Example 1.3, 5-(6-{[(1R)-1-cyclobutylethyl]amino}-7-[(trans-4-methylcyclohexyl)methyl]-7H-purin-2-yl)-2-methyl-1,2-dihydro-3H-1,2,4-triazol-3-one]			IC50 (Table 1): 71.1 nM
CCC1CCC(Cn2cnc3nc(-c4noc(=O)[nH]4)nc(N[C@H](C)C4CCC4)c32)C1 (mixture of isomers) [Example 3.10, 3-(6-(((R)-1-cyclobutylethyl)amino)-7-((3-ethylcyclopentyl)methyl)-7H-purin-2-yl)-1,2,4-oxadiazol-5(4H)-one]	313		
COc1cccc(Oc2nc(-c3noc(=O)[nH]3)nc3ncn(C[C@H]4CC[C@H](C)CC4)c23)c1 [Example 1.9, 3-{6-(3-methoxyphenoxy)-7-[(trans-4-methylcyclohexyl)methyl]-7H-purin-2-yl}-1,2,4-oxadiazol-5(4H)-one]			inhibition at 1 µM: 39%
C[C@@H]1CC[C@@H](Cn2cnc3nc(-c4noc(=O)[nH]4)nc(-c4cccc(Cl)c4)c32)CC1(F)F (single isomer, unassigned) [Example 3.16, 3-[6-(3-chlorophenyl)-7-{[(trans)-3,3-difluoro-4-methylcyclohexyl]methyl}-7H-purin-2-yl]-1,2,4-oxadiazol-5(4H)-one]	848		
C[C@H]1CC[C@H](Cn2cnc3nc(-c4noc(=O)[nH]4)nc(N4CCCC(F)(F)C4)c32)CC1 [Example 1.6, 3-{6-(3,3-difluoropiperidin-1-yl)-7-[(trans-4-methylcyclohexyl)methyl]-7H-purin-2-yl}-1,2,4-oxadiazol-5(4H)-one]			IC50 (Table 1): 820 nM
C[C@@H](Nc1nc(-c2n[nH]c(=O)o2)nc2ncn(C[C@H]3CC[C@H](C)CC3)c12)C1CCC1 [Example 1.15, 5-(6-{[(1R)-1-cyclobutylethyl]amino}-7-[(trans-4-methylcyclohexyl)methyl]-7H-purin-2-yl)-1,3,4-oxadiazol-2(3H)-one]			IC50 (Table 1): 52.5 nM
C[C@@H](Nc1nc(C(=O)O)nc2ncn(C[C@H]3CC[C@H](C)CC3)c12)C1CCC1 [Example 1.2, 6-{[(1R)-1-cyclobutylethyl]amino}-7-[(trans-4-methylcyclohexyl)methyl]-7H-purine-2-carboxylic acid]			IC50 (Table 1): 68.5 nM
C[C@@H]1CC[C@@H](Cn2cnc3nc(-c4noc(=O)[nH]4)nc(-c4cccc(Cl)c4)c32)CC1(F)F (single isomer, unassigned) [Example 3.15, 3-[6-(3-chlorophenyl)-7-{[(trans)-3,3-difluoro-4-methylcyclohexyl]methyl}-7H-purin-2-yl]-1,2,4-oxadiazol-5(4H)-one]	430		
COCOc1cc(Cl)cc(-c2nc(-c3noc(=O)[nH]3)nc3ncn(C[C@H]4CC[C@H](C)CC4)c23)c1 [Example 2.14, 3-{6-[3-chloro-5-(methoxymethoxy)phenyl]-7-[(trans-4-methylcyclohexyl)methyl]-7H-purin-2-yl}-1,2,4-oxadiazol-5(4H)-one]		41.7	
C[C@H]1CC[C@H](Cn2cnc3nc(-c4noc(=O)[nH]4)nc(N4CCCC(C(F)(F)F)C4)c32)CC1 (stereo partly drawn) [Example 1.10, 3-{7-[(trans-4-methylcyclohexyl)methyl]-6-[3-(trifluoromethyl)piperidin-1-yl]-7H-purin-2-yl}-1,2,4-oxadiazol-5(4H)-one]			inhibition at 1 µM: 37%
C[C@H]1CC[C@H](Cn2cnc3nc(-c4noc(=O)[nH]4)nc(-c4ccnc(Cl)c4)c32)CC1 [Example 2.15, 3-{6-(2-chloropyridin-4-yl)-7-[(trans-4-methylcyclohexyl)methyl]-7H-purin-2-yl}-1,2,4-oxadiazol-5(4H)-one]		188	
C[C@H]1CC[C@H](Cn2cnc3nc(-c4noc(=O)[nH]4)nc(-c4cc(Cl)cc(C(F)(F)F)c4)c32)CC1 [Example 2.11, 3-{6-[3-chloro-5-(trifluoromethyl)phenyl]-7-[(trans-4-methylcyclohexyl)methyl]-7H-purin-2-yl}-1,2,4-oxadiazol-5(4H)-one]		172	
C[C@H]1CC[C@H](Cn2cnc3nc(-c4noc(=O)[nH]4)nc(-c4cccc(Cl)c4)c32)CC1 [Example 2.1, 3-{6-(3-chlorophenyl)-7-[(trans-4-methylcyclohexyl)methyl]-7H-purin-2-yl}-1,2,4-oxadiazol-5(4H)-one]		53.4	
CCC1CCC(Cn2cnc3nc(C(=O)O)nc(N[C@H](C)C4CCC4)c32)C1 (single isomer, unassigned) [Example 3.11]	677		
